Measurements reported in patent EP1397353B1, “2-(2,6-DISUBSTITUTED PHENYL)-4-ARYL-5-ALKYL-1,3-OXAZOLINE COMPOUNDS USEFUL AS INSECTICIDES AND ACARICIDES” (Dow AgroSciences LLC, priority 2001, dated 2003).

How the values were obtained:
Format in all cases: in vivo
[1] = tested on: beet armyworm (Spodoptera exigua); assay: Insecticidal test for beet armyworm (treated lepidopteran diet); settings: Spodoptera exigua, 120 h, 2nd instar larvae, 5 days, rating of % Control, read-out: BAW, activity at 400 ppm against beet armyworm
Procedure: (§1) Insecticidal test for tobacco budworm (Heliothis virescens), beet armyworm (Spodoptera exigua), and cabbage looper (Trichoplusia ni).
(§2) To prepare test solution, the test compound was formulated at 400 ppm in 7.5 mL of 2 acetone: 1 tap water. 250 µL of the test solution was pipetted upon the surface of 8 mL of lepidopteran diet (modified Shorey) contained in each of five one-ounce plastic cups (one cup = 1 replication). […] After airdrying, the treated leaf discs were placed individually into one-ounce plastic cups. Each dried, treated cotton cotyledon disc was infested with a 2nd instar tobacco budworm larva, and each cabbage leaf disc was infested with a 2nd instar cabbage looper larva. Cups containing the treated substrates and larvae were capped and then held in a growth chamber at 25 °C, 50-55% RH, and 14 hr light: 10 hr dark for 5 days.

[2] = tested on: cabbage looper (Trichoplusia ni); assay: Insecticidal test for cabbage looper (leaf-dip, cabbage leaf discs); settings: Trichoplusia ni, foliar, 120 h, dipped cabbage leaf discs, 2nd instar larvae, 5 days, rating of % Control, read-out: CL, activity at 400 ppm against cabbage looper
Procedure: as §1, §2

[3] = tested on: two-spotted spider mite (Tetranychus urticae); assay: Insecticidal test for two-spotted spider mite, ovicide method; settings: Tetranychus urticae, foliar, 144 h; ovicide method, cotton leaf discs, 6 days; rating of % Control; read-out: SM, activity against two-spotted spider mite
Procedure: Insecticidal test for two-spotted spider mite (Tetranychus urticae)
Ten adult female two-spotted spider mites were placed on eight 2.2 cm leaf discs of cotton leaf, allowed to oviposit over 24 hours, and thereafter removed. […] Discs were placed on an agar substrate and held at 24 °C and 90% RH for 6 days.

[4] = tested on: cotton aphid (Aphis gossypii); assay: Insecticidal test for cotton aphid (spray on infested squash cotyledons); settings: 50 ppm spray, all life stages, 3 days, rating of % Control
Procedure: Insecticidal test for cotton aphid (Aphis gossypii)
To prepare spray solutions, 1 mg of each test compound was dissolved into 1 mL of a 90:10 acetone:ethanol solvent. This 1 mL of chemical solution was added to 19 mL of water containing 0.05% Tween 20 surfactant to produce a 50 ppm spray solution.
Squash cotyledons were infested with cotton aphid (all life stages)16-20 hours prior to application of spray solution. The solution was sprayed on both sides of each infested squash cotyledon (0.5 mL x 2 each side) with a sweeping action until runoff. The plants were allowed to air dry and held for 3 days in a controlled room at 26 °C and 40% RH after which time the test was graded. Grading was by actual count using a dissecting microscope and comparison of test counts to the untreated check.

[5] = tested on: Sweetpotato Whitefly (Bemisia tabacia); assay: Insecticidal test for sweetpotato whitefly (spray on cotton plants); settings: Bemisia, 312 h, 200 ppm spray, large nymphs counted after 13 days, rating of % Control, read-out: WF, activity at 200 ppm against whitefly
Procedure: Insecticidal test for Sweetpotato Whitefly (Bemisia tabacia)
Four mg of each test compound were dissolved by adding 4 mL of a 90:10 acetone:ethanol solvent mixture to the vial containing the sample compound. This solution was added to 16 mL of water containing 0.05% Tween 20 surfactant to produce 20 mL of a 200 ppm spray solution.
Five-week-old cotton plants reared in a greenhouse were stripped of all foliage except for the two uppermost true leaves that were greater than 5 cm in diameter. These plants were then placed into a laboratory colony of whiteflies for two days for oviposition by the colony females. All whiteflies were then removed from the test plants with pressurized air. The spray solution was then applied to the test plants with a hand-held syringe fitted with hollow cone nozzle. One mL spray solution was applied to each leaf top and bottom for a total of 4 mL per plant. Four replications of each test compound utilized a total of 16 mL spray solution. Plants were air dried and then placed in a holding chamber (28 °C and 60% RH) for 13 days. Compound efficacy was evaluated by counting, under an illuminated magnifying glass, the number of large nymphs (3rd-4th instar) per leaf
Percent control based on reduction of large nymphs of a test compound compared to solution-only (no test compound) sprayed plants is reported in Table 1-8.

[6] = tested on: tobacco budworm (Heliothis virescens); assay: Insecticidal test for tobacco budworm (leaf-dip, cotton cotyledon discs); settings: Heliothis virescens, 120 h, dipped cotton cotyledon discs, 2nd instar larvae, 5 days, rating of % Control, read-out: TBW, activity at 400 ppm against tobacco budworm
Procedure: as §1, §2

Compound | pest or weed control at 400 ppm [1] [%] | pest or weed control at 400 ppm [2] [%] | pest or weed control [3] [%] | CA, activity at 50 ppm against cotton aphid [4] | pest or weed control at 200 ppm [5] [%] | pest or weed control at 400 ppm [6] [%]
C[C@@H]1OC(c2c(F)cccc2F)=N[C@@H]1c1ccc(Br)cc1 (mixture of isomers) [Compound 2, (4R,5S)- and (4S,5R)-4-(4-bromophenyl)-2-(2,6-difluorophenyl)-5-methyl-4,5-dihydro-1,3-oxazole] | < 50 | < 50 | 90 to 100 | A (90-100) | 90 to 100 | –
C[C@@H]1OC(c2c(F)cccc2Cl)=N[C@@H]1c1ccc(Br)cc1 (mixture of isomers) [Compound 3, (4R,5S)- and (4S,5R)-4-(4-bromophenyl)-2-(2-chloro-6-fluorophenyl)-5-methyl-4,5-dihydro-1,3-oxazole] | – | 90 to 100 | 90 to 100 | B (80-89) | 90 to 100 | –
C[C@H]1OC(c2c(F)cccc2F)=N[C@H]1c1ccc(-c2ccc(OC(F)(F)F)cc2)cc1 (mixture of isomers) [Compound 6, (4S,5R)- and (4R,5S)-2-(2,6-difluorophenyl)-4-(4'-trifluoromethoxy-1,1'-biphenyl-4-yl)-5-methyl-4,5-dihydro-1,3-oxazole] | 90 to 100 | 90 to 100 | 90 to 100 | A (90-100) | 80 to 89 | 90 to 100
Cc1cc(-c2ccc(C(F)(F)F)cc2)ccc1[C@H]1N=C(c2c(F)cccc2F)O[C@H]1C (mixture of isomers) [Compound 39, (4R,5S)- and (4S,5R)-2-(2,6-difluorophenyl)-5-methyl-4-[3-methyl-4'-(trifluoromethyl)-1,1'-biphenyl-4-yl]-4,5-dihydro-1,3-oxazole] | 90 to 100 | 90 to 100 | 80 to 89 | – | < 50 | 90 to 100
Cc1cc(-c2ccc(OC(F)(F)F)cc2)ccc1[C@H]1N=C(c2c(F)cccc2F)O[C@H]1C (mixture of isomers) [Compound 40, (4R,5S)- and (4S,5R)-2-(2,6-difluorophenyl)-5-methyl-4[3-methyl-4'-(trifluoromethoxy)-1,1'-biphenyl-4-yl]-4,5-dihydro-1,3-oxazole] | 90 to 100 | 90 to 100 | 80 to 89 | – | < 50 | 90 to 100
